# Columns and labels:
# HCT116 colon carcinoma = HCT116 colon carcinoma xenograft, tumor volume; format: in vivo, mice; settings: 10 mg/Kg i.p., day 19
# Protocol: HCT116 cell line was grown in McCoy’s medium, supplemented with 10% inactivated FBS, 2 mM glutamine and standard concentration of antibiotics. 7- to 8-week-old male CD1 nude athymic mice were purchased from Charles River and under pathogen-free conditions in accordance with European Directives no. 2010/63 and with Italian D.L. 26/2014. Mice were injected subcutaneously into the right flank with 4 × 10^6 of HCT116 cells; tumor volume (mm^3) was evaluated three times a week by caliper using the formula Dmax x dmin^^2/2, where ‘d’ and ‘D’ are the shortest and the longest diameters, respectively. For all experiments, mice were randomly divided (n = 7) and intra-peritoneal injected by day five every day with: vehicle sesame oil/DMSO 6%; MC2884 10 mg/Kg in sesame oil/DMSO 6%. Mice were sacrificed after 20 days of drug treatment and tumors explanted for immunohistochemical analyses. For HCT116-DKO colon cancer, 6 × 10^6 cells were injected.
# CYP2D6 = molecular target: T1, CYP2D6 (Homo sapiens, UniProt P10635); assay: Cytochrome P450 inhibition, CYP2D6; format: in vitro ADME; settings: human liver microsomes, probe dextromethorphan
# T1 construct: liver microsomes (0.5 mg/mL) and NADPH (1 mM) in; from tissue; host or cells: human liver microsomes
# T1 sequence (P10635 whole entry): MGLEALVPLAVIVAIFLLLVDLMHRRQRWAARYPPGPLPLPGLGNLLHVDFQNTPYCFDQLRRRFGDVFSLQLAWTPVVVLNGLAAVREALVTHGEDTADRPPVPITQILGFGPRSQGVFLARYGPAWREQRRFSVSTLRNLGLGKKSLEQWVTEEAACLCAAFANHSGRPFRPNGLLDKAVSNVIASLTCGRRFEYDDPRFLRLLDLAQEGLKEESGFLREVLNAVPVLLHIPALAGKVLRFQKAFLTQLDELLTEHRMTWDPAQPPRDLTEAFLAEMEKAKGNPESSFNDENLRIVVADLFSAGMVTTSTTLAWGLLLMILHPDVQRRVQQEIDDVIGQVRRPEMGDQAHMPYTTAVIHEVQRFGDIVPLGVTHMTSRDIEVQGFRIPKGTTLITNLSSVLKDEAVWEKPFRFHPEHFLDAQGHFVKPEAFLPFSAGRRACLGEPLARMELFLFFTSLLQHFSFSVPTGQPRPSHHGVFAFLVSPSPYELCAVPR
# Protocol: (§1) This provided a dose of 2 mg free base material/kg when Cytochrome p450 inhibition (5 isoform iC50 administered iv in a 5 mL/kg dosing volume. determination) mouse terminal ip pK study ADME-Tox Cytochrome P450 inhibition of Compound MC2884 was given ip at a dose of 2 mg/kg MC2884 using human liver microsomes as an estimation to a group of 24 normally fed male CD1 mice in a 10 mL/ of in vitro metabolism. kg injection volume. Terminal blood samples (> 230 μL) MC2884 (0.1 μM–25 μM) was incubated with were taken under CO2 from groups of 3 mice at each of 8 human liver microsomes and NADPH in the presence time-points post dose (0.083, 0.25, 0.5, 1, 2, 4, 8 and 24 h) of a cytochrome P450 isoform-specific probe substrate. and placed into heparinized tubes. […]
# (§2) All samples were stored at −20° C measuring the formation of a fluorescent metabolite. […]
# (§3) Cyp2C19 inhibition (0.1 mg/mL) and NADPH (1 mM) in the presence of the probe substrate midazolam (2.5 μM) for 5 min at Six test compound samples at concentrations 37° C. […] For the CYP1A incubations, the reactions microsomes (0.5 mg/mL) and NADPH (1 mM) in the were terminated by methanol, and the formation of the presence of the probe substrate mephenytoin (25 μM) metabolite, resorufin, was monitored by fluorescence for 60 min at 37° C. […]
# MePR2B = assay: Cytotoxic effect on mesenchymal progenitor model MePR2B; format: cell-based; settings: immortalized non-cancer cells
# CYP3A4 = molecular target: T2, CYP3A4 (Homo sapiens, UniProt P08684); assay: Cytochrome P450 inhibition, CYP3A4; format: in vitro ADME; settings: probe midazolam (2.5 µM), human liver microsomes, observed only at 25 μM
# T2 construct: from tissue; host or cells: human liver microsomes
# T2 sequence (P08684 whole entry): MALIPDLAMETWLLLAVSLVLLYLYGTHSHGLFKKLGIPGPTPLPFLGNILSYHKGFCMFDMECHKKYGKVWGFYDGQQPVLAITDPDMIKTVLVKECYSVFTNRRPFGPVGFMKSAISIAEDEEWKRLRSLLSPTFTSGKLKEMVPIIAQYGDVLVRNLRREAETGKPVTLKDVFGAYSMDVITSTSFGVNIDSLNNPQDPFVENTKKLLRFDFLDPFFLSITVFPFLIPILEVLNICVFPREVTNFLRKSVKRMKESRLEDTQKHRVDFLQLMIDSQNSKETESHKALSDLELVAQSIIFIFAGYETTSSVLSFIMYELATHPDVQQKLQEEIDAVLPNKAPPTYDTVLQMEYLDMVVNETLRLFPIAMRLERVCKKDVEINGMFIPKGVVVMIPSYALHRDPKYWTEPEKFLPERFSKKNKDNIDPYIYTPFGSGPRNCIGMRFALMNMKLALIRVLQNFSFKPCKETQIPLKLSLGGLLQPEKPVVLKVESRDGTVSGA
# Protocol: as §1, §2, §3
# HDAC1 = HDAC1 (Homo sapiens, UniProt Q13547); assay: HDAC1 in vitro assay; format: biochemical
# HDAC1, sequence (Q13547 whole entry): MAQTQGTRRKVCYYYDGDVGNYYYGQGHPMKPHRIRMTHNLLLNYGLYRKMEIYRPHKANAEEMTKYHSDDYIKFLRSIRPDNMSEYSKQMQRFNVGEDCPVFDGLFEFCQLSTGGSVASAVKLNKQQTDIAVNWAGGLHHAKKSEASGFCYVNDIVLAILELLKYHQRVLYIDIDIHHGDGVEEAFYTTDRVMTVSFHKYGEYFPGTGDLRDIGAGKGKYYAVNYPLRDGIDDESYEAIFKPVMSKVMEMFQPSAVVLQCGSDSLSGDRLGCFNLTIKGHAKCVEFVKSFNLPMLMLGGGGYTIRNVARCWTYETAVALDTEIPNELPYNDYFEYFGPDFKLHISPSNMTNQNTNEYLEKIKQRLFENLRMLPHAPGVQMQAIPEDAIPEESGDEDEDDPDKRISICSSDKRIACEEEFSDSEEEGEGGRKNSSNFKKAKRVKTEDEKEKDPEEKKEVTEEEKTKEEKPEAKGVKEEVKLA
# Protocol: (§4) The HDAC1 and SIRT1 assays were performed as described previously.
# p300 = p300 (Homo sapiens, UniProt Q09472); assay: HAT in vitro assay, 10-dose IC50, p300; format: biochemical; settings: substrate Histone H3, 3 μM Acetyl-CoA; read-out: Compound IC50 p300
# p300, sequence (Q09472 whole entry): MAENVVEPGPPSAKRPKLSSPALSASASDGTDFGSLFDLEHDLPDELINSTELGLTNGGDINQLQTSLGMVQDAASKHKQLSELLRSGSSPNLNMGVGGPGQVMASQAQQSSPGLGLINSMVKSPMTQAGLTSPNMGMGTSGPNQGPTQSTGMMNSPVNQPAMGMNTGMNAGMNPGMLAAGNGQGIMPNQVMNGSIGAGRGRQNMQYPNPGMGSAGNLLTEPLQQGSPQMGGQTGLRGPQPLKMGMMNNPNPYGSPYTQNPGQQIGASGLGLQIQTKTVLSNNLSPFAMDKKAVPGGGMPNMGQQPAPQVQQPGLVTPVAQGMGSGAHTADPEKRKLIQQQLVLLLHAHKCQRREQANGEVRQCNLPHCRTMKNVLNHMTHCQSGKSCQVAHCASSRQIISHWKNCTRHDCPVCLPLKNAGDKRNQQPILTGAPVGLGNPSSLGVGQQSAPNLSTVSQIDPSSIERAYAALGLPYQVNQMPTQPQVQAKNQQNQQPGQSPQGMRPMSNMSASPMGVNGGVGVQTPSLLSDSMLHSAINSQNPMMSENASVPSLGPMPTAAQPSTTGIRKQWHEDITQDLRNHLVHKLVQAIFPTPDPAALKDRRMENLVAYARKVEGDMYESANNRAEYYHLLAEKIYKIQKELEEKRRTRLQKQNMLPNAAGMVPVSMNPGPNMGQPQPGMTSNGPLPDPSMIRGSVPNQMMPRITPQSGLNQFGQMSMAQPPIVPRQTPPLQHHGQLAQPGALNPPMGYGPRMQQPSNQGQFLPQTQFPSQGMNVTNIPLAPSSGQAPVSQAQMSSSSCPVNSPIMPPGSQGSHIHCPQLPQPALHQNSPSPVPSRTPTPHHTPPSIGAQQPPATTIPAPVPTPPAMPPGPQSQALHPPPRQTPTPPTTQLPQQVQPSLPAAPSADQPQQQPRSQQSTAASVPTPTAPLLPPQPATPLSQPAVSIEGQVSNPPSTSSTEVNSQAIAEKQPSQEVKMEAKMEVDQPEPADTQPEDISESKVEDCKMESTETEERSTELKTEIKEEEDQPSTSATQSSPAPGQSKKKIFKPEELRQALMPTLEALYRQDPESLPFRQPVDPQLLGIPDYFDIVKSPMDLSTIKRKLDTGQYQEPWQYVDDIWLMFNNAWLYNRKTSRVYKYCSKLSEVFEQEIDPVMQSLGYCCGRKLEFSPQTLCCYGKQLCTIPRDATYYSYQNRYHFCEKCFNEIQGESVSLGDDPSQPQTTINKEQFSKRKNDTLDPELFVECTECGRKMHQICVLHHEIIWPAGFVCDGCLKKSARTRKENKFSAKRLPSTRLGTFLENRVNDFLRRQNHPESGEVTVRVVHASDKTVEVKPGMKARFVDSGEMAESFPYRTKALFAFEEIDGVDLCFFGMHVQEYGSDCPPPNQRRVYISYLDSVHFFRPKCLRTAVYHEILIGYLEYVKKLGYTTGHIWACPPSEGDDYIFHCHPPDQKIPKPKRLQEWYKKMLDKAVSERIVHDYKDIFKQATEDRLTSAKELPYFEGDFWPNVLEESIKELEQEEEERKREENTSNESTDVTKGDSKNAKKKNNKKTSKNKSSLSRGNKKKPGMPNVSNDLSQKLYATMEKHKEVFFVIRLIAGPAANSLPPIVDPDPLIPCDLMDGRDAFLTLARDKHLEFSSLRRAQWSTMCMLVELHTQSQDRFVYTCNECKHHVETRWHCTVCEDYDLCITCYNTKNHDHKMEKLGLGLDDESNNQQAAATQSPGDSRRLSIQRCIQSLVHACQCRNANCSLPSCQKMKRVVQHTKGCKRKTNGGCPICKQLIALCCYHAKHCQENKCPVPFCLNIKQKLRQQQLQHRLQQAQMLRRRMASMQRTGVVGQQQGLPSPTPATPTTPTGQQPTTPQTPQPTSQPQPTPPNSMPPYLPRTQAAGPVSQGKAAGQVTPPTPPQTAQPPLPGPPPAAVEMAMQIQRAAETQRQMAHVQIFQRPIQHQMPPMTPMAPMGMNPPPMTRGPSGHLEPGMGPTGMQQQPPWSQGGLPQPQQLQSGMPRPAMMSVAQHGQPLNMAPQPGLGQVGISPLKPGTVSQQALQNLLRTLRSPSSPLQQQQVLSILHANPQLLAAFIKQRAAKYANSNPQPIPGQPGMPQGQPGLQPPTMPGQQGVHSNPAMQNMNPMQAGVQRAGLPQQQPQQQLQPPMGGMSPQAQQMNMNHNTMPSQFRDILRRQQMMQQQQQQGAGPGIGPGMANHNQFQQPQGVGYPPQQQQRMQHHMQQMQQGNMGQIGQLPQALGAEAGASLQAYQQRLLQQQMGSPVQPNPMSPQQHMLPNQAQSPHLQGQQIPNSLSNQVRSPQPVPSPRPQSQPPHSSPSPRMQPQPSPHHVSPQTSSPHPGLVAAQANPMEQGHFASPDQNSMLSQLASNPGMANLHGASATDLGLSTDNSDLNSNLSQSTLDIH
# SIRT1 = SIRT1 (Homo sapiens, UniProt Q96EB6); assay: SIRT1 in vitro assay; format: biochemical
# Protocol: as §4
# CYP2C9 = molecular target: T3, CYP2C9 (Homo sapiens, UniProt P11712); assay: Cytochrome P450 inhibition, CYP2C9; format: in vitro ADME; settings: human liver microsomes, probe tolbutamide
# T3 construct: from tissue; host or cells: human liver microsomes
# T3 sequence (P11712 whole entry): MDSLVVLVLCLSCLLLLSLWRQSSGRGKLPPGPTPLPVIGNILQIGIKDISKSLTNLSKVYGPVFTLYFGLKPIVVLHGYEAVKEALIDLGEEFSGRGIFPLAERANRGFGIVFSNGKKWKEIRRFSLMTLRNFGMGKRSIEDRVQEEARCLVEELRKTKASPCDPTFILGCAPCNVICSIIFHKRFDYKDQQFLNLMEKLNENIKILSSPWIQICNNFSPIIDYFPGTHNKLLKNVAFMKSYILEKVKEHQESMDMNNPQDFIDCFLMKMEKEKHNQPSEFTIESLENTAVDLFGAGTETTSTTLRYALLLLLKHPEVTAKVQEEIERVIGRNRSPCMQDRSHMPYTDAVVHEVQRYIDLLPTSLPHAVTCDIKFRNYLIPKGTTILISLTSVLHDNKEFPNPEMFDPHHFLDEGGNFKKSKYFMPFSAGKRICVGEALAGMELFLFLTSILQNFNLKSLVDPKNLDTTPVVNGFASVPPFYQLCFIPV
# Protocol: as §1, §2, §3
structure (smiles),measurement,setting,value
O=C1/C(=C/c2cccc(Br)c2)CN(Cc2ccccc2)C/C1=C\c1cccc(Br)c1 [MC2884],tumor volume reduction versus untreated mice,HCT116 colon carcinoma,90%
same,IC50,CYP2D6,> 25 µM
same,cytotoxic effect on MePR2B,MePR2B,insensitive
same,"inhibition at 5 min, 25 µM",CYP3A4,45%
same,HDAC modulating action,HDAC1,no activity
same,IC50,p300,0.456 µM
same,SirT modulating action,SIRT1,no activity
same,IC50,CYP2C9,> 25 µM

# Reference: PMC5986654, “Combined HAT/EZH2 modulation leads to cancer-selective cell death” (Oncotarget, 2018)
